According to paper PMC10344917, “Affinity and cooperativity modulate ternary complex formation to drive targeted protein degradation” (Nature Communications, 2023):
Where two headings read alike, the source gives them in different places.

Legend:
SMARCA2-NanoLuc = target: T1, SMARCA2-NanoLuc (Homo sapiens, UniProt P51531); experiment: NanoBRET target engagement assay, live and permeabilized HEK293 cells (SMARCA2); format: cell-based; settings: SMARCA2 NanoBRET TE
T1 construct: expressed in transfected cells; host or cells: HEK293
Method: We employed a NanoBRET-based target engagement (TE) assay as reported earlier^7 for evaluating PROTACs relative permeability. In summary, live and permeabilized HEK293 cells with SMARCA2 or BRD4-NanoLuc were used for measuring IC50 values of different PROTACs. The relative shift in the IC50 was evaluated as relative binding affinity (RBA) by taking the ratio of IC50 values of live and permeabilized cells. Availability index (AI), which is a surrogate for permeability can be calculated by taking a ratio of RBA of compounds to permeable benchmark molecules. We used SMARCA bromodomain binding ligand^8 for SMARCA2 PROTACs and JQ1^9, 10 for BRD4 PROTACs as benchmark molecules.
Relative Binding Affinity (RBA) = Live-cell TE IC50 / Permeabilized-cell TE IC50
Availability Index (AI) = RBAtest cmpd / RBApermeable benchmark
Availability Index (AI) greater than one is indicative of reduced permeability compared to the benchmark.

SMARCA2^BD = target: T2, SMARCA2^BD (Homo sapiens, UniProt P51531); experiment: SPR binary binding of PROTAC to SMARCA2-functionalized surface; settings: 1:1 Langmuir binding model, SEM N=3 or SD N=2, read-out: KTP (binary affinity PROTAC / SMARCA2)
T2 construct: SMARCA2^BD 1373–1511 ∆1400–1417; made in house
Method: PROTACs (10 mM stocks in 100% DMSO) were diluted to 400 nM in a running buffer (20 mM Tris pH 7.5, 200 mM NaCl, 0.02% P20). This stock solution was then serially diluted in the running buffer containing final 2% DMSO. Solutions were injected in multi-cycle kinetic format without regeneration (contact time 60 s, flow rate 80 μL/min, dissociation time 120 s) using a stabilization period of 30 s and syringe wash (50% DMSO) between injections onto a high-density VBC-functionalized surface. For SMARCA2 analysis, biotinylated proteins were introduced on a Series S streptavidin (SA) sensor chip at high-density (3000-4000 RU).
Raw sensorgrams were processed by performing double reference subtraction, solvent correction, and analysis was done using Biacore Insight Evaluation Software. Kinetic analysis was performed by fitting data to a 1:1 Langmuir interaction model and a steady-state affinity model was used to evaluate equilibrium binding affinity.

[1] = live HEK293 cells, read-out: Live-Cell TE IC50
[2] = permeabilized HEK293 cells, read-out: Permeabilized-Cell TE IC50

T2 sequence (P51531 1373-1493 isoform P51531-2): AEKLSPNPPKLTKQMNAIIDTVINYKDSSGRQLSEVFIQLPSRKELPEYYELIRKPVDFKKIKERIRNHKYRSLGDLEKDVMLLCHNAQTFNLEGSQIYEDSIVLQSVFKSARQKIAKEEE
T1 sequence (P51531 whole entry): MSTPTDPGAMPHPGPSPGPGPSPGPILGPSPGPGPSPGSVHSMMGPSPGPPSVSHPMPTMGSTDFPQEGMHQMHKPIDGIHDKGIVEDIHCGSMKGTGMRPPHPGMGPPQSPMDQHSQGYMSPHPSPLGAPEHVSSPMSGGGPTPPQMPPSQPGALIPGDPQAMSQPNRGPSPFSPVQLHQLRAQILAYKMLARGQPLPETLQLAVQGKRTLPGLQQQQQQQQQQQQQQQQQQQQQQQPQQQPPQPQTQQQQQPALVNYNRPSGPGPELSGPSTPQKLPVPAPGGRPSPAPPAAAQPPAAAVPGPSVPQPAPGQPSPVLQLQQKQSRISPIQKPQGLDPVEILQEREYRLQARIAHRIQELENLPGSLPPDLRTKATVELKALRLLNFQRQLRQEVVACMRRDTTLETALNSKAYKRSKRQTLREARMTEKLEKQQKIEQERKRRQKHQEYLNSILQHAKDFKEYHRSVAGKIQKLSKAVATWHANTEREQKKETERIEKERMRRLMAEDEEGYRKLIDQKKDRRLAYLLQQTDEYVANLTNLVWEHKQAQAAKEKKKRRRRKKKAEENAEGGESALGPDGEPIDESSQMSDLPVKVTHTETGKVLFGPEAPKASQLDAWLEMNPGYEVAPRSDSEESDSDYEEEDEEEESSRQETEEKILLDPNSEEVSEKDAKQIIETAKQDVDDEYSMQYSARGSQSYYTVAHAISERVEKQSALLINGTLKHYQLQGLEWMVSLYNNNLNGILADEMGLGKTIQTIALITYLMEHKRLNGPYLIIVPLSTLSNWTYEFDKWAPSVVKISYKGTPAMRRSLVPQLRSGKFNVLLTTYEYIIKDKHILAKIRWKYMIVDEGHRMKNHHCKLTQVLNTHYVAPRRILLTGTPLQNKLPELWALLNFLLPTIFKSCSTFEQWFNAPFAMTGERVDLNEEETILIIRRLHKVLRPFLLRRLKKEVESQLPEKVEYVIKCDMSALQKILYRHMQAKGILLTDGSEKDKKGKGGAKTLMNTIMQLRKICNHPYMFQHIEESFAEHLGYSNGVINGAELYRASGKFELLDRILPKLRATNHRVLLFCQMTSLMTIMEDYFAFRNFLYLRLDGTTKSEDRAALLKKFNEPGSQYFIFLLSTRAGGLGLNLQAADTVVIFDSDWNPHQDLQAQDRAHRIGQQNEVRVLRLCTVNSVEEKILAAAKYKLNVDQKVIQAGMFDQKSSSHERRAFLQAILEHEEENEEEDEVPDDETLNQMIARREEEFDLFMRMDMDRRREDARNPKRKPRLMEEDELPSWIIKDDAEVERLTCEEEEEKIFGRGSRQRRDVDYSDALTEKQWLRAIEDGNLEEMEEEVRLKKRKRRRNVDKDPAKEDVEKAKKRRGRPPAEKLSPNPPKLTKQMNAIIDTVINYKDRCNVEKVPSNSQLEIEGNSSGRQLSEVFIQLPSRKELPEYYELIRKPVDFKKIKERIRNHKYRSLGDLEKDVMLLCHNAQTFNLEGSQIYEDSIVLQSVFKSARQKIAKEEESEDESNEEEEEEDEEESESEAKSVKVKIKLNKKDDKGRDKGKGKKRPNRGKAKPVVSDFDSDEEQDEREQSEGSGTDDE

IC50 (SMARCA2-NanoLuc; [1])	IC50 (SMARCA2-NanoLuc; [2])	Kd (SMARCA2^BD)	SMILES
0.98 µM	0.74 µM	0.302 ± 0.08 µM	Cc1ncsc1-c1ccc(CNC(=O)C2C[C@@H](O)CN2C(=O)C(NC(=O)C2(F)CC2)C(C)(C)C)c(OCCc2ccc(CN3CCN(c4cc(-c5ccccc5O)nnc4N)CC3)cc2)c1 (stereo in doubt) [Compound 11, (2R,4R)-N-(2-(4-((4-(3-amino-6-(2-hydroxyphenyl)pyridazin-4-yl)piperazin-1-yl)methyl)phenethoxy)-4-(4-methylthiazol-5-yl)benzyl)-1-((R)-2-(1-fluorocyclopropane-1-carboxamido)-3,3-dimethylbutanoyl)-4-hydroxypyrrolidine-2-carboxamide, reference compound]
0.2 µM	0.15 µM	0.095 ± 0.0255 µM	Cc1ncsc1-c1ccc([C@H](C)NC(=O)[C@@H]2C[C@@H](O)CN2C(=O)[C@@H](NC(=O)c2ccnc(N3CCN(c4cc(-c5ccccc5O)nnc4N)CC3)c2)C(C)(C)C)cc1 [Compound 1, 2-(4-(3-Amino-6-(2-hydroxyphenyl)pyridazin-4-yl)piperazin-1-yl)-N-((S)-1-((2S,4R)-4-hydroxy-2-(((S)-1-(4-(4-methylthiazol-5-yl)phenyl)ethyl)carbamoyl)pyrrolidin-1-yl)-3,3-dimethyl-1-oxobutan-2-yl)isonicotinamide]
0.4 µM	0.2 µM	0.196 ± 0.023 µM	Cc1ncsc1-c1ccc([C@H](C)NC(=O)[C@@H]2C[C@@H](O)CN2C(=O)[C@@H](NC(=O)c2cccc(N3CCN(c4cc(-c5ccccc5O)nnc4N)CC3)n2)C(C)(C)C)cc1 [Compound 2, 6-(4-(3-Amino-6-(2-hydroxyphenyl)pyridazin-4-yl)piperazin-1-yl)-N-((S)-1-((2S,4R)-4-hydroxy-2-(((S)-1-(4-(4-methylthiazol-5-yl)phenyl)ethyl)carbamoyl)pyrrolidin-1-yl)-3,3-dimethyl-1-oxobutan-2-yl)picolinamide]
0.82 µM	0.75 µM	0.232 ± 0.035 µM	Cc1ncsc1-c1ccc([C@H](C)NC(=O)[C@@H]2C[C@@H](O)CN2C(=O)[C@@H](NC(=O)c2cccc(N3CCN(c4cc(-c5ccccc5O)nnc4N)CC3)c2)C(C)(C)C)cc1 [Compound 4, (2S,4R)-1-((S)-2-(3-(4-(3-Amino-6-(2-hydroxyphenyl)pyridazin-4-yl)piperazin-1-yl)benzamido)-3,3-dimethylbutanoyl)-4-hydroxy-N-((S)-1-(4-(4-methylthiazol-5-yl)phenyl)ethyl)pyrrolidine-2-carboxamide]
1.26 µM	0.4 µM	0.206 ± 0.034 µM	Cc1ncsc1-c1ccc([C@H](C)NC(=O)[C@@H]2C[C@@H](O)CN2C(=O)[C@@H](NC(=O)c2csc(N3CCN(c4cc(-c5ccccc5O)nnc4N)CC3)n2)C(C)(C)C)cc1 [Compound 5, 2-(4-(3-Amino-6-(2-hydroxyphenyl)pyridazin-4-yl)piperazin-1-yl)-N-((S)-1-((2S,4R)-4-hydroxy-2-(((S)-1-(4-(4-methylthiazol-5-yl)phenyl)ethyl)carbamoyl)pyrrolidin-1-yl)-3,3-dimethyl-1-oxobutan-2-yl)thiazole-4-carboxamide]
1.41 µM	0.09 µM	0.0142 ± 0.0016 µM	Cc1ncsc1-c1ccc([C@H](C)NC(=O)[C@@H]2C[C@@H](O)CN2C(=O)[C@@H](NC(=O)CN2CCN(c3cc(-c4ccccc4O)nnc3N)CC2)C(C)(C)C)cc1 [Compound 6, (2S,4R)-1-((S)-2-(2-(4-(3-Amino-6-(2-hydroxyphenyl)pyridazin-4-yl)piperazin-1-yl)acetamido)-3,3-dimethylbutanoyl)-4-hydroxy-N-((S)-1-(4-(4-methylthiazol-5-yl)phenyl)ethyl)pyrrolidine-2-carboxamide, reference compound]
0.69 µM	0.21 µM	0.046 ± 0.0085 µM	Cc1ncsc1-c1ccc([C@H](C)NC(=O)[C@@H]2C[C@@H](O)CN2C(=O)[C@@H](NC(=O)Cc2ccnc(N3CCN(c4cc(-c5ccccc5O)nnc4N)CC3)c2)C(C)(C)C)cc1 [Compound 7, (2S,4R)-1-((S)-2-(2-(2-(4-(3-Amino-6-(2-hydroxyphenyl)pyridazin-4-yl)piperazin-1-yl)pyridin-4-yl)acetamido)-3,3-dimethylbutanoyl)-4-hydroxy-N-((S)-1-(4-(4-methylthiazol-5-yl)phenyl)ethyl)pyrrolidine-2-carboxamide]
0.6 µM	0.05 µM	0.049 ± 0.012 µM	Cc1ncsc1-c1ccc([C@H](C)NC(=O)[C@@H]2C[C@@H](O)CN2C(=O)[C@@H](NC(=O)CCc2ccnc(N3CCN(c4cc(-c5ccccc5O)nnc4N)CC3)c2)C(C)(C)C)cc1 [Compound 8, (2S,4R)-1-((S)-2-(3-(2-(4-(3-Amino-6-(2-hydroxyphenyl)pyridazin-4-yl)piperazin-1-yl)pyridin-4-yl)propanamido)-3,3-dimethylbutanoyl)-4-hydroxy-N-((S)-1-(4-(4-methylthiazol-5-yl)phenyl)ethyl)pyrrolidine-2-carboxamide]
2.37 µM	5.04 µM	0.745 ± 0.134 µM	Cc1ncsc1-c1ccc([C@H](C)NC(=O)[C@@H]2C[C@@H](O)CN2C(=O)[C@@H](NC(=O)c2ccnc(N3CCN(c4cnnc(-c5ccccc5O)c4)CC3)c2)C(C)(C)C)cc1 [Compound 10, N-((S)-1-((2S,4R)-4-Hydroxy-2-(((S)-1-(4-(4-methylthiazol-5-yl)phenyl)ethyl)carbamoyl)pyrrolidin-1-yl)-3,3-dimethyl-1-oxobutan-2-yl)-2-(4-(6-(2-hydroxyphenyl)pyridazin-4-yl)piperazin-1-yl)isonicotinamide]
